Holding throughout (assay type): cell-based
Series [1] is described as follows: Mammalian cell cytotoxicity bioassay. As to conditions: African green monkey, Vero cells (kidney).
Series [2] deals with chloroquine-resistant strain (Indochina W2) of P. falciparum. The series can be described thus: Malaria bioassay, PicoGreen fluorometric antiplasmodial assay. As to conditions: Plasmodium falciparum.
Series [3] deals with recombinant Tulahuen clone C4 of T. cruzi, intracellular amastigotes in Vero cells. The series can be described thus: Chagas' disease bioassay, beta-galactosidase colorimetric assay. As to conditions: Trypanosoma cruzi, 120 h, read-out: IC50 T. cruzi.
The test system of series [4] is MCF-7 human breast cancer cells. The series can be described thus: Cancer bioassay, cytotoxicity by NCI protocol.

Experimental findings from article PMC3375898 (Natural Product Communications, 2011) are described below.

SMILES strings stand for the structures. Like-named read-outs stand apart in the source and are kept apart here.

As usually defined, the IC50 is the concentration that inhibits the measured activity by half.

The molecule `COc1c(CC(C)O)c2c3c(CC(C)O)c(OC)c(=O)c4c(O)cc5c(c6c(cc(O)c(c1=O)c62)OCO5)c43` (stereo not shown) [Compound 1, cercosporin] yielded an IC50 at 4 h in series [1] of 1540 ± 100 nM. For the same molecule, the IC50 in series [2] (W2, read-out: IC50 P. falciparum) was found to be 1030 ± 30 nM; in series [3], 1080 ± 30 nM; in series [4] (MCF7, read-out: IC50 MCF-7), 4680 ± 200 nM.

Consider `CC1CS(=O)(=O)CCN1/N=C/c1ccc([N+](=O)[O-])o1` (stereo not shown) [Nifurtimox, reference compound], for which the IC50 in series [3] lay in the range of 10000 to 16000 nM.

For the molecule `CCN(CC)CCCC(C)Nc1ccnc2cc(Cl)ccc12` (stereo not shown) [Chloroquine, reference compound], the IC50 in series [2] (W2, read-out: IC50 P. falciparum, positive control) lay in the range of 80 to 100 nM.

On to `COc1cccc2c1C(=O)c1c(O)c3c(c(O)c1C2=O)C[C@@](O)(C(=O)CO)C[C@@H]3O[C@H]1C[C@H](N)[C@H](O)[C@H](C)O1` [Adriamycin, reference compound], for which the concentration for half-maximal inhibition (IC50) in series [4] (MCF7, read-out: IC50 MCF-7, positive control) lay within 0.02 to 0.3 nM.
